Experiments:
[1] = logP by HPLC on reversed phase columns (EEC directive 79/831 Annex V.A8); type: physicochemical; settings: for chromatographic logP: reversed phase HPLC columns
Experimental: Measurement of logP values was performed according EEC directive 79/831 Annex V.A8 by HPLC (High Performance Liquid Chromatography) on reversed phase columns with the following methods:
^[a] measurement of LC-MS was done at pH 2.7 with 0.1% formic acid in water and with acetonitrile (contains 0.1% formic acid) as eluent with a linear gradient from 10% acetonitrile to 95% acetonitrile. […]

[2] = system: Phytophthora infestans; type: in vivo; settings: tomato plants, preventive spray, 500 ppm of active ingredient, evaluated 7 days after inoculation; 0% = untreated control, 100% = no disease
[3] = system: Plasmopara viticola; test: Plasmopara test (grapevines)/preventive; type: in vivo; settings: preventive spray, 100 ppm of active ingredient, evaluated 6 days after inoculation, 0% = untreated control, 100% = no disease
Experimental: Plasmopara Test (Grapevines)/Preventive • Solvent: 24.5 parts by weight of acetone • 24.5 parts by weight of dimethylacetamide • Emulsifier: 1 part by weight of alkylaryl polyglycol ether
To produce a suitable preparation of active compound, 1 part by weight of active compound is mixed with the stated amounts of solvent and emulsifier, and the concentrate is diluted with water to the desired concentration. To test for preventive activity, young plants are sprayed with the preparation of active compound at the stated rate of application. After the spray coating has dried on, the plants are inoculated with an aqueous spore suspension of Plasmopara viticola and then remain for 1 day in an incubation cabinet at approximately 20° C. and a relative atmospheric humidity of 100%. The plant is subsequently placed for 4 days in a greenhouse at approximately 21° C. and a relative atmospheric humidity of approximately 90%. The plants are then misted and placed for 1 day in an incubation cabinet. The test is evaluated 6 days after the inoculation. 0% means an efficacy which corresponds to that of the untreated control, while an efficacy of 100% means that no disease is observed.

[4] = method [a]: LC-MS at pH 2.7, 0.1% formic acid in water / acetonitrile, gradient 10% to 95% acetonitrile
[5] = pH 2.7, method [a]: LC-MS at pH 2.7, 0.1% formic acid in water / acetonitrile, gradient 10% to 95% acetonitrile
[6] = pH 2.7, value in preparation example text, method not given

Structure (SMILES)	LogP [1, 4]	further results
CC(C)C(C)NC(=C(C#N)C(=O)C1CCOC1)c1ccccc1Br (mixture of isomers) [Example 1]	3.60^[a]	
CC(NC(=C(C#N)C(=O)CC1CC1)c1ccccc1Br)C1CC1 (stereo not shown) [Example 24]	4.06^[a]	Efficacy in % [2]: 85%
CC(C)C(C)NC(=C(C#N)C(=O)C1CC1)c1ccccc1Cl (stereo not shown) [Example 31]	4.18^[a]	
CC(NC(=C(C#N)C(=O)Cc1ccccc1)c1ccccc1Br)C1CC1 (stereo not shown) [Example 25]	4.20^[a]	
COCC(=O)C(C#N)=C(NC(C)C(C)C)c1ccccc1Cl (stereo not shown) [Example 23]	3.21^[a]	
CC(C)C(C)NC(=C(C#N)C(=O)C1CC1)c1ccccc1Br (stereo not shown) [Example 8]	4.21^[a]	
CC(NC(=C(C#N)C(=O)C1CCCC1)c1ccccc1Br)C1CC1 (stereo not shown) [Example 29]	4.60^[a]	
CC(C)CC(=O)C(C#N)=C(N[C@@H](C)C(C)C)c1ccccc1Cl [Example 33]	4.73^[a]	
CC(NC(=C(C#N)C(=O)c1ccco1)c1ccccc1Br)C1CC1 (stereo not shown) [Example 10]	3.50^[a]	
CC(C)C(C)NC(=C(C#N)C(=O)C1CCC1)c1ccccc1Br (stereo not shown) [Example 22]	4.64^[a]	
CCCC(=O)C(C#N)=C(NC(C)C(C)C)c1ccccc1Cl (stereo not shown) [Example 13, 2-{(2-chlorophenyl)[(3-methylbutan-2-yl)amino]methylene}-3-oxohexanenitrile]		chromatographic logP [1, 5]: 4.44; chromatographic logP [1, 6]: 4.44
CCCCC(=O)C(C#N)=C(NC(C)C(C)C)c1ccccc1Cl (stereo not shown) [Example 14]	4.81^[a]	
CCCCC(=O)C(C#N)=C(NC(C)C1CC1)c1ccccc1Br (stereo not shown) [Example 15]	4.40^[a]	
CCCC(=NC#N)C(C#N)=C(N[C@@H](C)C(C)C)c1ccccc1Cl [Example 36]	3.85^[a]	
CC(C)C(C)NC(=CC#N)c1ccccc1Cl (stereo not shown) [3-(2-chlorophenyl)-3-[(3-methylbutan-2-yl)amino]acrylonitrile]		chromatographic logP [1, 6]: 3.27
CCCCC(=O)C(C#N)=C(NC(C)C(C)C)c1ccccc1Br (stereo not shown) [Example 12]	4.85^[a]	
COCC(=O)C(C#N)=C(NC(C)C1CC1)c1ccccc1Br (stereo not shown) [Example 5]	3.00^[a]	Efficacy in % [2]: 93%
N#CC=C(Cl)c1ccccc1Cl [3-chloro-3-(2-chlorophenyl)acrylonitrile]		chromatographic logP [1, 6]: 3.02; LogP ([1]; value in preparation example text, method not given): 3.23
CCCC(=O)C(C#N)=C(NC(C)C(C)C)c1ccccc1Br (stereo not shown) [Example 17]	4.40^[a]	Efficacy in % [2]: 100%; Efficacy in % [3]: 93%

Structure (SMILES)	LogP [1, 4]	further results
CC(C)C(C)NC(=C(C#N)C(=O)c1ccco1)c1ccccc1Cl (stereo not shown) [Example 6]	3.87^[a]	
CC(C)C(C)NC(=C(C#N)C(=O)CCl)c1ccccc1Cl (stereo not shown) [Example 18]	3.78^[a]	
CC(NC(=C(C#N)C(=O)C1CCC1)c1ccccc1Br)C1CC1 (stereo not shown) [Example 11]	4.20^[a]	
COCC(=O)C(C#N)=C(NC(C)C(C)C)c1ccccc1Br (stereo not shown) [Example 19]	3.27^[a]	Efficacy in % [2]: 95%; Efficacy in % [3]: 74%
C[C@H](NC(=C(C#N)C(=O)C1CCCCO1)c1ccccc1Br)C1CC1 (stereo partly shown) [Example 32]	3.50^[a]	
CC(C)C(C)NC(=C(C#N)C(=O)C1CCCCO1)c1ccccc1Br (mixture of isomers) [Example 26]	3.80^[a]	
CCCC(=NOC)C(C#N)=C(NC(C)C(C)C)c1ccccc1Cl (stereo not shown) [Example 35, 2-{(2-chlorophenyl)[(3-methylbutan-2-yl)amino]methylene}-3-(methoxyimino)hexanenitrile]		chromatographic logP [1, 5]: 5.34; chromatographic logP [1, 6]: 5.34
CC(NC(=C(C#N)C(=O)C1CCOC1)c1ccccc1Br)C1CC1 (mixture of isomers) [Example 30]	3.25^[a]	
CCC(=O)C(C#N)=C(NC(C)C1CC1)c1ccccc1Br (stereo not shown) [Example 28]	3.60^[a]	
CC(NC(=C(C#N)C(=O)CCl)c1ccccc1Br)C1CC1 (stereo not shown) [Example 7]	3.50^[a]	
CC(C)C(C)NC(=C(C#N)C(=O)CC1CC1)c1ccccc1Cl (stereo not shown) [Example 2]	4.27^[a]	
CC(C)C(C)NC(=C(C#N)C(=O)CC1CC1)c1ccccc1Br (stereo not shown) [Example 16]	4.34^[a]	Efficacy in % [2]: 95%
CCCC(=O)C(C#N)=C(N[C@@H](C)C1CC1)c1ccccc1Br [Example 34]	4.10^[a]	Efficacy in % [2]: 93%
CC(NC(=C(C#N)C(=O)C1CC1)c1ccccc1Br)C1CC1 (stereo not shown) [Example 20]	3.90^[a]	
COCCC(=O)C(C#N)=C(NC(C)C1CC1)c1ccccc1Br (stereo not shown) [Example 3]	3.20^[a]	
CNCC(=O)C(C#N)=C(NC(C)C(C)C)c1ccccc1Cl (stereo not shown) [Example 21]	1.89^[a]	
CC(C)C(C)NC(=C(C#N)C(=O)C1CCCC1)c1ccccc1Br (stereo not shown) [Example 4]	5.05^[a]	
CCC(=O)C(C#N)=C(NC(C)C(C)C)c1ccccc1Br (stereo not shown) [Example 9]	4.04^[a]	
COCCC(=O)C(C#N)=C(NC(C)C(C)C)c1ccccc1Cl (stereo not shown) [Example 27]	3.55^[a]	
